Results taken from ChEMBL document CHEMBL1201862, “PubChem BioAssay data set” (2004).
Where a name gives a salt, the structure may show the parent alone. Activity calls are given as the source filed them.

Key:
Bcl-2-related protein A1 = biological target: T1, Bcl-2-related protein A1 (Mus musculus, UniProt Q07440); assay type: functional;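 note: confirmatory dose–response counterscreen on Bfl-1, used to check hits from a UBC13 polyubiquitin inhibitor campaign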
T1 sequence (Q07440 whole entry): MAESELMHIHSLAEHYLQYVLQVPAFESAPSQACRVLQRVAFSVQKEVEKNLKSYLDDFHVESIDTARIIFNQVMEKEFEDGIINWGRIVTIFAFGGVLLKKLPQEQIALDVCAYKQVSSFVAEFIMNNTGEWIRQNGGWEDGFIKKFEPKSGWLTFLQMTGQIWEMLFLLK

[1] = biological target: T2, Ubiquitin-conjugating enzyme E2 N (Homo sapiens, UniProt P61088); assay type: functional
T2 sequence (P61088 whole entry): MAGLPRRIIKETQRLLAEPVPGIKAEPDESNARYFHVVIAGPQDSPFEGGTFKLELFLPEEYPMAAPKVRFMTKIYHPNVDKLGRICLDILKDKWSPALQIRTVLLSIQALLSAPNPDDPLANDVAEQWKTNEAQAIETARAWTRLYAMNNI

[2] = biological target: T2, Ubiquitin-conjugating enzyme E2 N; assay type: functional; remark: listed apart in the source
Paired box protein Pax-8 = Paired box protein Pax-8 (Homo sapiens, UniProt Q06710); experiment: PAX8 transcriptional activity inhibition in RMG-I – RMG-I cells, luciferase, cherry-pick, dose response (AID 687027); assay type: functional, cell-based;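 note: luciferase reporter driven by Pax8 target thyroperoxidase promoter measured by SteadyGlo luminescence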
HEK293 [3] = experiment: cells; conditions: Homo sapiens
HEK293 [4] = experiment: cells; conditions: Homo sapiens; remark: listed apart in the source
[5] = Luminescence Cell-Based Dose Retest to Confirm Inhibitors of Cancer Stem Cells. [Related pubchem assays (depositor defined):AID2717, AID2721]; assay type: functional; conditions: Homo sapiens
[6] = biological target: DNA damage-inducible transcript 3 protein (Mus musculus, UniProt P35639); assay type: functional, Cricetulus griseus
INS1 = experiment: INS-1E survival protection against cytokine death – cell-based, luminescence, retest, dose response (AID 449756); assay type: functional; conditions: Rattus norvegicus;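 note: cell death triggered by IL-1 beta plus TNF-alpha plus IFN-gamma mixture; protective hits raise ATP signal compared with cytokine alone wells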
[7] = biological target: Voltage-dependent T-type calcium channel subunit alpha-1H (Homo sapiens, UniProt O95180); experiment: human CACNA1H calcium influx blockade – cell-based, synthetic library set 2, HEK293 HH8, Fluo-4, SAR follow-up (AID 493023); assay type: functional
SUMO E1/E2 = SUMO E1/E2 (Homo sapiens, UniProt P63279+Q9UBE0+Q9UBT2); experiment: SAR analysis of SUMOylation using HTRF in an in-Vitro dose response assay. [Related pubchem assays (depositor defined):AID2006, AID2011, AID2018, AID2069, AID2658]; assay type: functional
[8] = biological target: T3, Voltage-gated N-type calcium channel alpha-1B subunit/Amyloid beta A4 precursor protein-binding family A member 1 (Homo sapiens, UniProt Q00975+Q02410); experiment: disruptors of Mint-PDZ/N-type channel peptide interaction – biochemical, HTRF, set 2, SAR follow-up (AID 434980); assay type: functional
[9] = biological target: T3, Voltage-gated N-type calcium channel alpha-1B subunit/Amyloid beta A4 precursor protein-binding family A member 1; experiment: disruptors of Mint-PDZ/N-type channel peptide interaction – biochemical, HTRF, SAR follow-up (AID 2489); assay type: functional
[10] = biological target: Sphingosine 1-phosphate receptor 5 (Homo sapiens, UniProt Q9H228); experiment: Late stage counterscreen assay for S1P4 antagonists: Fluorescence dose response cell-based screening assay for antagonists of the Sphingosine 1-Phosphate Receptor 5 (S1P5). [Related pubchem assays (depositor defined):AID1510, AID1524, AID1692, AID1853, AID2332, AID489009, AID489017]; assay type: functional
[11] = biological target: Sphingosine 1-phosphate receptor 3 (Homo sapiens, UniProt Q99500); experiment: Late stage counterscreen assay for S1P4 antagonists: Fluorescence dose response cell-based screening assay for antagonists of the Sphingosine 1-Phosphate Receptor 3 (S1P3). [Related pubchem assays (depositor defined):AID1510, AID1524, AID1692, AID1853, AID2332, AID489009, AID489017]; assay type: functional
[12] = biological target: Sphingosine 1-phosphate receptor 1 (Homo sapiens, UniProt P21453); experiment: Late stage counterscreen assay for S1P4 antagonists: Fluorescence dose response cell-based screening assay for antagonists of the Sphingosine 1-Phosphate Receptor 1 (S1P1). [Related pubchem assays (depositor defined):AID1510, AID1524, AID1692, AID1853, AID2332, AID489009, AID489017]; assay type: functional
[13] = biological target: Sphingosine 1-phosphate receptor 2 (Homo sapiens, UniProt O95136); experiment: Late stage counterscreen assay for S1P4 antagonists: Fluorescence dose response cell-based screening assay for antagonists of the Sphingosine 1-Phosphate Receptor 2 (S1P2). [Related pubchem assays (depositor defined):AID1510, AID1524, AID1692, AID1853, AID2332, AID489009, AID489017]; assay type: functional
[14] = biological target: Lysine-specific demethylase 4C (Homo sapiens, UniProt Q9H3R0); experiment: inhibition of JMJD2C H3K9me3 demethylation – biochemical, DELFIA europium, cherry-picked samples, dose response (AID 488835); assay type: functional
[15] = biological target: T4, Dual specificity protein phosphatase 3 (Homo sapiens, UniProt P51452); experiment: VHR1 phosphatase inhibitors, primary screen, biochemical, absorbance, uHTS (AID 1654)
[16] = biological target: T4, Dual specificity protein phosphatase 3; experiment: VHR1 phosphatase inhibitors, biochemical (AID 1878)
[17] = biological target: T5, Dual specificity protein phosphatase 6 (Rattus norvegicus, UniProt Q64346); experiment: inhibition of rat DUSP6 enzyme activity – biochemical, in vitro, primary screen (AID 425)
T5 sequence (Q64346 whole entry): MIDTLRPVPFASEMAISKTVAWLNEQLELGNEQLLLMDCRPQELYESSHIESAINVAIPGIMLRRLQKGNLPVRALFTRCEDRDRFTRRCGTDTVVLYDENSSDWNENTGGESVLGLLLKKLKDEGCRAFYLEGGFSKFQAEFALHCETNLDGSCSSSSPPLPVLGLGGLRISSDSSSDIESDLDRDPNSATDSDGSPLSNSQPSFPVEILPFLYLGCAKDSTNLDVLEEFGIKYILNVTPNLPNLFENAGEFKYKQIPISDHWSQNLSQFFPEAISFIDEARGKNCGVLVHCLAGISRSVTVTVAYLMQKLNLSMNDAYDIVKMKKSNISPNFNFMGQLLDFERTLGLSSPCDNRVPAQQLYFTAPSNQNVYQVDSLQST

[18] = biological target: T6, Polyadenylate-binding protein 1 (Homo sapiens, UniProt P11940); experiment: MLLE binding blockers, Cy5 peptide tracer – biochemical, fluorescence polarization, Cy5-PAM2 peptide, secondary, miRNA deadenylation inhibitor project, dose response (AID 602260); assay type: functional; conditions: read-out: IC50_Mean
[19] = biological target: T6, Polyadenylate-binding protein 1; experiment: MLLE domain peptide-binding blockers, IC50 – biochemical, fluorescence polarization, FITC-PAM2 peptide, dose response (AID 602259); assay type: functional; conditions: read-out: IC50_Mean
[20] = biological target: Eukaryotic translation initiation factor 4H (Homo sapiens, UniProt Q15056); experiment: inhibitors of translation initiation factor eIF4H – SAR follow-up (AID 435011); assay type: functional
[21] = biological target: T6, Polyadenylate-binding protein 1; experiment: PABP inhibition in translation initiation, SAR follow-up (AID 435018); assay type: functional
SUMO-activating enzyme = SUMO-activating enzyme (Homo sapiens, UniProt Q9UBT2); experiment: blockers of UBC9-mediated SUMO conjugation – biochemical, AlphaScreen, SUMOylation inhibitor project, confirmation (AID 2018); assay type: functional
X-box-binding protein 1 = biological target: T7, X-box-binding protein 1 (Homo sapiens, UniProt P17861); assay type: functional, Cricetulus griseus;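 note: confirmatory dose-response counter-screen serving a CHOP assay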
T7 sequence (P17861 whole entry): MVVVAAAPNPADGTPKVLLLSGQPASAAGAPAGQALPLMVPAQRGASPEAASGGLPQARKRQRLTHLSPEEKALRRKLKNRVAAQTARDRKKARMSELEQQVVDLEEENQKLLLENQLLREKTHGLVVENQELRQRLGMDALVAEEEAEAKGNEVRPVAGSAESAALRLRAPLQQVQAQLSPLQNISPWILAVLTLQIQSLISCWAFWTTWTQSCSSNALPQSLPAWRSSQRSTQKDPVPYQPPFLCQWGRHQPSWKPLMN

Cytochrome P450 2D6 = Cytochrome P450 2D6 (Homo sapiens, UniProt P10635);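 note: CYP2D6 member of a cytochrome P450 panel assay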
[22] = biological target: Intestinal-type alkaline phosphatase (Mus musculus, UniProt P24822); experiment: PubChem AID 488875; assay type: functional
[23] = biological target: T8, Intestinal-type alkaline phosphatase (Homo sapiens, UniProt P09923); experiment: human intestinal alkaline phosphatase activators, dose response, biochemical, luminescence, uHTS hits (AID 463120); assay type: functional
[24] = biological target: T8, Intestinal-type alkaline phosphatase; experiment: activation of human intestinal alkaline phosphatase – biochemical, luminescent, uHTS hits, set 2, dose response (AID 488817); assay type: functional;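 note: potency of activators that raise enzyme activity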
[25] = biological target: T9, Alkaline phosphatase, tissue-nonspecific isozyme (Homo sapiens, UniProt P05186); experiment: activation of tissue-nonspecific alkaline phosphatase – biochemical, TNAP isozyme, human IAP uHTS hits, selectivity assay for human IAP activator project, dose response (AID 488886); assay type: functional;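 note: potency of compounds raising TNAP activity as a selectivity check on IAP activators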
T9 sequence (P05186 whole entry): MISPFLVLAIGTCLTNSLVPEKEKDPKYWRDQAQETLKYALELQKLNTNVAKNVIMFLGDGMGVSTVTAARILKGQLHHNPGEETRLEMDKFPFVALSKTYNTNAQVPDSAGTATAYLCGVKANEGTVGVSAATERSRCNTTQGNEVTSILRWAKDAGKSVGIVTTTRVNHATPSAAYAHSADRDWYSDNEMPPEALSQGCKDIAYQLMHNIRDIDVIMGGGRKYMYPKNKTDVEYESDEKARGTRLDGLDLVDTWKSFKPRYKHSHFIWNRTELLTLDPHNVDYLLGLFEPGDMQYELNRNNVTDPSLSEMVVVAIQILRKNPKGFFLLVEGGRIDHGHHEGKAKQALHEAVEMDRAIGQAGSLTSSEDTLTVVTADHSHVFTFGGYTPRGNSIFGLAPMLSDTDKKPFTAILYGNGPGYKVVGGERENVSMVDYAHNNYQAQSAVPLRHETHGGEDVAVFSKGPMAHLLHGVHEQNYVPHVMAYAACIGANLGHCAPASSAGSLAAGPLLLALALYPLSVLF

Cytochrome P450 2C9 = Cytochrome P450 2C9 (Homo sapiens, UniProt P11712)

T6 sequence (P11940 whole entry, the tested form may be a part): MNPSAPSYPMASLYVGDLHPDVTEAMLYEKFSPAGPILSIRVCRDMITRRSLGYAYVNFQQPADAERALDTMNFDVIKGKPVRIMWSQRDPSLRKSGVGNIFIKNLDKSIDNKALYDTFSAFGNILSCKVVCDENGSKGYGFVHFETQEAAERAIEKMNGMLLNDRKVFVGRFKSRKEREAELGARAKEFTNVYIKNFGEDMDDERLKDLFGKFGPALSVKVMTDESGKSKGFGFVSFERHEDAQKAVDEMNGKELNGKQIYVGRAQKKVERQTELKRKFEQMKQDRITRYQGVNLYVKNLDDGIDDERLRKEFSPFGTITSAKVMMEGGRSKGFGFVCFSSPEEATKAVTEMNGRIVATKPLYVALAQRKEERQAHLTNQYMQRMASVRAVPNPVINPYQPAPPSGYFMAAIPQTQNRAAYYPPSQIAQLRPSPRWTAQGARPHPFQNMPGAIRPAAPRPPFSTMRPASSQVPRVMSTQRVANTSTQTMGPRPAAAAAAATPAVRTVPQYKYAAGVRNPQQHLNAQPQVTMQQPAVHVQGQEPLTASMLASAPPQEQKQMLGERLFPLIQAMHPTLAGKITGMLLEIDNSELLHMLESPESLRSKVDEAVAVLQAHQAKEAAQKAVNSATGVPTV
DNA damage-inducible transcript 3 protein, sequence (P35639 whole entry): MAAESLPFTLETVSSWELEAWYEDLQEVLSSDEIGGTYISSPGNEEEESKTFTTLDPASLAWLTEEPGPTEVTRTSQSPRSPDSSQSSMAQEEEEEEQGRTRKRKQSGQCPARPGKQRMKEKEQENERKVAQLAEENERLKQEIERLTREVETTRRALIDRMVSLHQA
Lysine-specific demethylase 4C, sequence (Q9H3R0 whole entry): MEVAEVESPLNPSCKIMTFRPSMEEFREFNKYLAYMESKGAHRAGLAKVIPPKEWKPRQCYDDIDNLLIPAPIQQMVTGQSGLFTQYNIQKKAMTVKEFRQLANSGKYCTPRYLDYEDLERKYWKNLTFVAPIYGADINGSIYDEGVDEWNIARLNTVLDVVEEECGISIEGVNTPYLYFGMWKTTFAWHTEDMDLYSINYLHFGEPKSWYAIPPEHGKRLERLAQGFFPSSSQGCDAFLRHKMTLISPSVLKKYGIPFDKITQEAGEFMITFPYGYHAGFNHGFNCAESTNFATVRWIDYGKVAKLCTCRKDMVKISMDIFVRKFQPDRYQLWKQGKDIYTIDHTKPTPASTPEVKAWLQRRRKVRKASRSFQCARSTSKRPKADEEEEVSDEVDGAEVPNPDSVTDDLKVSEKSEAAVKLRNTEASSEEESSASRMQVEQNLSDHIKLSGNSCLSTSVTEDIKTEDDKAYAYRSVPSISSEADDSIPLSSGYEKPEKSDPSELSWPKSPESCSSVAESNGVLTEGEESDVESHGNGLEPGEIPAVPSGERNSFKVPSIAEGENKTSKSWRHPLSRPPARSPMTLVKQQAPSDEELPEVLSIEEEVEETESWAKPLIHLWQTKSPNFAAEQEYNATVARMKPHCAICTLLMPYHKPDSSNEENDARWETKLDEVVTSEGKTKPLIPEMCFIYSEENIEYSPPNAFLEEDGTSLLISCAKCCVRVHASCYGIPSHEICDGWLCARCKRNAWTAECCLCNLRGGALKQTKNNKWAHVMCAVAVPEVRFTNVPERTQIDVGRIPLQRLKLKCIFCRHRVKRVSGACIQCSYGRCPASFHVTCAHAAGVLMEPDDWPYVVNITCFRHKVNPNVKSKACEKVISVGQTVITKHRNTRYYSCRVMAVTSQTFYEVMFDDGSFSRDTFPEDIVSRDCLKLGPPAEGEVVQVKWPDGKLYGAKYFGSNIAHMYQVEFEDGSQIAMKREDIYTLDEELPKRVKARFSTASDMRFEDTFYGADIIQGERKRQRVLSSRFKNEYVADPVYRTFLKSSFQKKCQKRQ
T4 sequence (P51452 whole entry): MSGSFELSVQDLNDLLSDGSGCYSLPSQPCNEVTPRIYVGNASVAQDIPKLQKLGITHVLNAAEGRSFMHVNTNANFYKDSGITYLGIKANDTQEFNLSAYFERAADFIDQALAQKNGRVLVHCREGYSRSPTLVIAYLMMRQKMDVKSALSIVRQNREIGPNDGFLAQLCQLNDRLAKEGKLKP
Voltage-dependent T-type calcium channel subunit alpha-1H, sequence (O95180 whole entry): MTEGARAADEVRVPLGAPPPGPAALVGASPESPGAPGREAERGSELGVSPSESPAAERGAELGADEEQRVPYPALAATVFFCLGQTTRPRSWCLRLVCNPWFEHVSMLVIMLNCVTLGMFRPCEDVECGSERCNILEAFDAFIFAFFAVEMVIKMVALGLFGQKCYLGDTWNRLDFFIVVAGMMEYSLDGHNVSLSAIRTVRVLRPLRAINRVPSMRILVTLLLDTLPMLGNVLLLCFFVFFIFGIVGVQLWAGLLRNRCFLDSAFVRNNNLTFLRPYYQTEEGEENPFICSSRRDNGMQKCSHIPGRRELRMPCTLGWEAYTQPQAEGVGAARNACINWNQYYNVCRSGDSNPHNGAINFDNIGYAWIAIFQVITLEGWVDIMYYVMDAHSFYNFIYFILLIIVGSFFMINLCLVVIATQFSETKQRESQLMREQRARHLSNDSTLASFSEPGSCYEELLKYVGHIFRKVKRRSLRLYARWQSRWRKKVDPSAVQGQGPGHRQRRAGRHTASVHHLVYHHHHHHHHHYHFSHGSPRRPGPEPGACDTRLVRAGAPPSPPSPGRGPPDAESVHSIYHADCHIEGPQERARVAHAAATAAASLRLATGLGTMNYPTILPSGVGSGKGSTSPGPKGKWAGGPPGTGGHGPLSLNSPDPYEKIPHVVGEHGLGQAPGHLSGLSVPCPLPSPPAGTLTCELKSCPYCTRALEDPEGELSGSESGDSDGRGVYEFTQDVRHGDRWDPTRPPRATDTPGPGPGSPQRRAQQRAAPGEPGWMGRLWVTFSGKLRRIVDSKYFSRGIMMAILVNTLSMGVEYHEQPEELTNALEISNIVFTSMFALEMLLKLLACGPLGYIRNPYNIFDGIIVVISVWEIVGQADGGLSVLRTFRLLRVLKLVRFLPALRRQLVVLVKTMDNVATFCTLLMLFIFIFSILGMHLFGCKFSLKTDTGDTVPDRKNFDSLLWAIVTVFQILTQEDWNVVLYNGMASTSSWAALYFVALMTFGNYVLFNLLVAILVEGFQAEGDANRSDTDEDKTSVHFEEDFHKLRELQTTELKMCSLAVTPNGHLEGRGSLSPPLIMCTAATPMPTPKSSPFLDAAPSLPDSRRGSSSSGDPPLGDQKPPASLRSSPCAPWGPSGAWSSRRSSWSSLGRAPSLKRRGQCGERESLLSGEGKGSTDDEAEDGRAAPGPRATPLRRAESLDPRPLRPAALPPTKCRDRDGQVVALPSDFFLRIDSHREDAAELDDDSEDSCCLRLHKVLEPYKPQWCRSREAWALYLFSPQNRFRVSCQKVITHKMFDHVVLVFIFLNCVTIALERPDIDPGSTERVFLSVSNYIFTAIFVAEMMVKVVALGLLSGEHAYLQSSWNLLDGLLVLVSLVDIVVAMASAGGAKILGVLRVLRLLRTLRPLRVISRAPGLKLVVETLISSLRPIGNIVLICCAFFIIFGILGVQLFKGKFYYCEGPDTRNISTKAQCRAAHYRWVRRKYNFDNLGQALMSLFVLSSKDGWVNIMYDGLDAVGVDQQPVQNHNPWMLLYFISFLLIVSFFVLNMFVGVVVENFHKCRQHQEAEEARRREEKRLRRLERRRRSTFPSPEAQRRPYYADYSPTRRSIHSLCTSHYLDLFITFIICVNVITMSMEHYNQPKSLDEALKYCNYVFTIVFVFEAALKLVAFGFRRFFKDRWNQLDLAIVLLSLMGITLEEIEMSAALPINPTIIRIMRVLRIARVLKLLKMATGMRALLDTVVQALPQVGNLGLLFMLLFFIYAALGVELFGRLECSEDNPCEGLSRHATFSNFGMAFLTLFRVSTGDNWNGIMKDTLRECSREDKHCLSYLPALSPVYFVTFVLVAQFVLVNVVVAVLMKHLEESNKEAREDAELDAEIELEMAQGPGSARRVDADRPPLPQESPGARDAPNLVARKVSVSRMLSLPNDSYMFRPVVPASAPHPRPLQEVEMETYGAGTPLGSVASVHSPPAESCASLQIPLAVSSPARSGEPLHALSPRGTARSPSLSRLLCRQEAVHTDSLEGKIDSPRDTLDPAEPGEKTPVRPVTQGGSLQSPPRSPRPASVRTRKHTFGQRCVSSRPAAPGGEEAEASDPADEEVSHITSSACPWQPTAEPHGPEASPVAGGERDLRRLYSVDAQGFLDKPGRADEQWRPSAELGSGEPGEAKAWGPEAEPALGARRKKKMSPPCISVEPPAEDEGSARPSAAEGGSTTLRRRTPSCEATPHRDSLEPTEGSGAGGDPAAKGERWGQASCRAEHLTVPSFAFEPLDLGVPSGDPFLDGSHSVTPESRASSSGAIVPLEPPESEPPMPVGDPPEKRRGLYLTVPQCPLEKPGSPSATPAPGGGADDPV
T8 sequence (P09923 whole entry): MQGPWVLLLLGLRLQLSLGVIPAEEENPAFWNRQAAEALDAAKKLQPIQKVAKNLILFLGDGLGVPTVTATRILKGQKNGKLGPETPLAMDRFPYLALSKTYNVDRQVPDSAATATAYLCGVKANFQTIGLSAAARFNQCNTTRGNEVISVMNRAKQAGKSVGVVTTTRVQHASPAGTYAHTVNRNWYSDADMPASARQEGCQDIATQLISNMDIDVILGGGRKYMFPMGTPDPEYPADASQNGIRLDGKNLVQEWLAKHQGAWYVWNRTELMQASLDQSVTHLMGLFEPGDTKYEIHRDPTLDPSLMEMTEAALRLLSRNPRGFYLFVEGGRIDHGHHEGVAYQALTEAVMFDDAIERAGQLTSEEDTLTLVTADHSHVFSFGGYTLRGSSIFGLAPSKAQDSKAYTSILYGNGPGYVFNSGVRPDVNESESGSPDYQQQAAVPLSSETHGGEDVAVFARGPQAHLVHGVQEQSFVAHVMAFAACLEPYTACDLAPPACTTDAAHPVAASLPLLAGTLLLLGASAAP

NCCCNCCCCNCCCN [SPERMINE TETRAHYDROCHLORIDE]
IC50 (Bcl-2-related protein A1): > 20 µM (inactive) | IC50 [1]: 14.3 µM (active) | IC50 [2]: 15.6 µM (active)

CCOC(=O)c1c(-c2ccc(F)cc2)csc1NC(=O)CN1C(=O)NC2(CCCCC2C)C1=O (stereo not given)
AC50 (Paired box protein Pax-8): 4.11 µM (active) | EC50 (HEK293 [3]): > 59.6 µM (inactive) | EC50 (HEK293 [4]): > 59.6 µM (inactive)

COc1ccc(-c2nn(-c3ccccc3)cc2/C=N/N2C(=O)CSC2=S)cc1
AC50 [5]: 2.08 µM (active) | Absolute IC50 (CHOP) [6]: 10 µM | AC50 (INS1): 4.38 µM (active)

CC(C)(C)CCN1CCC[C@H](NC(=O)COc2ccc(F)c(Cl)c2)C1
EC50 [7]: 10 µM (active)

O=C(COC(=O)c1cc(-c2ccco2)nc2ccccc12)NCc1ccccc1
IC50 (SUMO E1/E2): 4.07 µM (active) | IC50 [8]: > 56.8 µM (inactive) | IC50 [9]: > 56.8 µM (inactive)

O=C(NCCCN1CCN(c2ccccc2)CC1)C1CCCN(c2ncnc3c2nc2n3CCCCC2)C1 (stereo not given)
IC50 (Bcl-2-related protein A1): > 20 µM (inactive) | IC50 [1]: 7.51 µM (active) | IC50 [2]: 7.05 µM (active)

CC(C)c1cccc(C(C)C)c1NC(=O)c1ccc(-c2cc(Cl)ccc2Cl)o1
IC50 [10]: 12.7 µM (inactive) | IC50 [11]: > 25 µM (inactive) | IC50 [12]: > 25 µM (inactive) | IC50 [13]: > 25 µM (inactive)

CC(C)CN(C(=O)c1ccc(N2CCCC2=O)cc1)c1c(N)n(Cc2ccccc2)c(=O)[nH]c1=O
AC50 [14]: > 60 µM (inactive)

S=C(NCCCN1CCOCC1)NCCCN1CCOCC1
IC50 [15]: 2.61 µM (active) | IC50 [16]: 6.17 µM (active) | IC50 [17]: > 158 µM (not active) | IC50 [18]: > 66 µM (inactive) | IC50 [19]: > 66 µM (inactive)

O=C(NC1CCC2CN(Cc3ccccc3)CC21)c1cc(Cl)cc(Cl)c1 (stereo not given)
EC50 [7]: 4 µM (active)

CCOC(=O)Cc1c(Sc2ccccc2)c2ccccc2n1C
IC50 [20]: > 100 µM (inactive) | IC50 [21]: > 100 µM (inactive)

Nc1c(C(=O)NCc2ccco2)c2nc3ccccc3nc2n1CCc1ccccc1
IC50 (SUMO-activating enzyme): 1.87 µM (active)

CN1C(=O)C(Cc2ccc(OCc3ccccc3)cc2)C(=O)N(C)C1=O
AC50 [14]: 9.21 µM (active)

CCCCC1=CC2=C(c3ccco3)C(=O)C(C)(OC(=O)c3ccc(OC)cc3)C(=O)C2=CN1Cc1ccccc1 (stereo not given)
Absolute IC50 (CHOP) [6]: 10 µM | Absolute IC50 (XBP1) (X-box-binding protein 1): 10 µM

CC1CCN(C(=O)CSc2nc3cccnc3n2C)CC1
AC50 (Cytochrome P450 2D6): inconclusive

Cn1c(/C(C#N)=C(\O)c2ccc(Br)s2)nc2ccccc21
EC50 [22]: > 100 µM (inactive) | EC50 [23]: 77 µM (active) | EC50 [24]: 60 µM (active) | EC50 [25]: 45 µM (active)

Cn1c(SCC(=O)N/N=C/C=C\c2ccco2)nc2ccccc21
AC50 (Cytochrome P450 2D6): inconclusive | AC50 (Cytochrome P450 2C9): inconclusive
